Data taken from US20260232578A1, “COMPOSITIONS AND METHODS FOR TRANSMUCOSAL ABSORPTION” (Tonix Pharma Limited, priority 2012, published 2026).
Where “and” joins values, the source holds several entries; their conditions need not be identical. Identical values can stand only once. Like-named read-outs stand apart in the source and are kept apart here.

Assays:
5-HT2C = biological target: T1, 5-HT2C (Homo sapiens, UniProt P28335); assay: G-protein-dependent signal transduction, turnover of inositol triphosphate (IP); assay type: cell-based; details: read-out: IC50 (nM) (Antagonist)
T1 construct: expressed in transfected cells

5-HT2A [1] = biological target: T2, 5-HT2A (Homo sapiens, UniProt P28223); assay: as above; assay type: cell-based; details: read-out: IC50 (nM) (Antagonist)
T2 construct: expressed in transfected cells

5-HT2A [2] = biological target: T2, 5-HT2A; assay: G-protein-independent signal transduction, β-arrestin signaling; assay type: cell-based; details: for IC50: β-arrestin signaling, read-out: IC50, functional antagonist
5-HT2B = biological target: T3, 5-HT2B (Homo sapiens, UniProt P41595); assay: G-protein-dependent signal transduction, intracellular Ca2+ mobilization; assay type: cell-based; details: for IC50: Ca2+ mobilization, read-out: IC50, functional antagonist
T3 construct: expressed in transfected cells
Protocol: (§1) Quantitation was based on peak area ratio of the analytes versus their stable labeled internal standards. A weighted (1/C2), linear regression was performed to determine the concentration of the analytes. All regressions and figures presented in this validation report were generated by MDS Sciex Analyst version 1.4.2 and Thermo Electron Corporation Watson LIMS software, version 7.0.0.01b. […] Select receptors were analyzed in ligand-induced intracellular calcium mobilization.

5-HT2A [3] = biological target: T2, 5-HT2A; assay: as above; assay type: cell-based; details: for IC50: Ca2+ mobilization, read-out: IC50, functional antagonist
Protocol: as §1

5-HT2C receptor = biological target: T4, 5-HT2C receptor (Homo sapiens, UniProt P28335); assay: as above; assay type: cell-based
T4 construct: expressed in transfected cells
T4 sequence (P28335 33-458): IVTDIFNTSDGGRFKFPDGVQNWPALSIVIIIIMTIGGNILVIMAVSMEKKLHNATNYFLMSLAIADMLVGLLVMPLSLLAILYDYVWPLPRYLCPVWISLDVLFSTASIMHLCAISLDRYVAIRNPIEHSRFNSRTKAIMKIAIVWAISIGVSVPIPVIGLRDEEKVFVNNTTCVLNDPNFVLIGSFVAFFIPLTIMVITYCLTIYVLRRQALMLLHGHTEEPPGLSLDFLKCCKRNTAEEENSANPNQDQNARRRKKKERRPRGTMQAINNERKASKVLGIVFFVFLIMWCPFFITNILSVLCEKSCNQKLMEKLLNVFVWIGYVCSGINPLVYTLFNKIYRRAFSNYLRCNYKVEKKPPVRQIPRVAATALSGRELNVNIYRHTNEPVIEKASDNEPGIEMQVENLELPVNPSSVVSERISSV
Protocol: as §1

5-HT6 [4] = biological target: T5, 5-HT6 (Homo sapiens, UniProt P50406); assay: Functional antagonism (Table 69)
α2B = α2B (Homo sapiens, UniProt P18089); assay: Functional antagonism, cAMP production
muscarinic M1 receptor = biological target: T6, muscarinic M1 receptor (Homo sapiens, UniProt P11229); assay: G-protein-dependent signal transduction, intracellular Ca2+ mobilization; assay type: cell-based; set-up: expressed in transfected cells; details: for IC50: M1, Ca2+ mobilization, read-out: IC50, functional antagonist
T6 sequence (P11229 1-460): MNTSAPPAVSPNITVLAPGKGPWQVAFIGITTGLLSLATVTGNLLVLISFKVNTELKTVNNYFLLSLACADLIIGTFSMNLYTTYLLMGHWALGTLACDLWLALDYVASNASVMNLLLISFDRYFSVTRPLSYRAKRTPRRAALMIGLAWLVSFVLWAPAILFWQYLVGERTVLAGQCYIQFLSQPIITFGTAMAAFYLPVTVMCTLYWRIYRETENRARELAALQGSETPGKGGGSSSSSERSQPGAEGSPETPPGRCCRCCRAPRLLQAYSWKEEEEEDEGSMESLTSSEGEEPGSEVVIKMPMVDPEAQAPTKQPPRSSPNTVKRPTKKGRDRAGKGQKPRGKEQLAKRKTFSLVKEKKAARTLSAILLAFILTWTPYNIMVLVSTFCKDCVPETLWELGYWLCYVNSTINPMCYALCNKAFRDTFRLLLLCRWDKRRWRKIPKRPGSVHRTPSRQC

5-HT5A receptor = biological target: T7, 5-HT5A receptor (Homo sapiens, UniProt P47898); assay: Equilibrium receptor binding, recombinant human receptor
T7 construct: expressed in transfected cells

5-HT transporter = 5-HT transporter (Homo sapiens, UniProt P31645); assay: Equilibrium binding to transporters (FIG. 19); details: Serotonin TP (transporter)
[5] = biological target: T8, adrenergic α1B receptor (Alpha1B) (Homo sapiens, UniProt P35368); assay: Equilibrium receptor binding, recombinant human receptor
T8 construct: expressed in transfected cells

[6] = biological target: T9, adrenergic α1A receptor (Alpha1A) (Homo sapiens, UniProt P35348); assay: as above; details: for Ki: Alpha1A
T9 construct: expressed in transfected cells
T9 sequence (P35348 1-466): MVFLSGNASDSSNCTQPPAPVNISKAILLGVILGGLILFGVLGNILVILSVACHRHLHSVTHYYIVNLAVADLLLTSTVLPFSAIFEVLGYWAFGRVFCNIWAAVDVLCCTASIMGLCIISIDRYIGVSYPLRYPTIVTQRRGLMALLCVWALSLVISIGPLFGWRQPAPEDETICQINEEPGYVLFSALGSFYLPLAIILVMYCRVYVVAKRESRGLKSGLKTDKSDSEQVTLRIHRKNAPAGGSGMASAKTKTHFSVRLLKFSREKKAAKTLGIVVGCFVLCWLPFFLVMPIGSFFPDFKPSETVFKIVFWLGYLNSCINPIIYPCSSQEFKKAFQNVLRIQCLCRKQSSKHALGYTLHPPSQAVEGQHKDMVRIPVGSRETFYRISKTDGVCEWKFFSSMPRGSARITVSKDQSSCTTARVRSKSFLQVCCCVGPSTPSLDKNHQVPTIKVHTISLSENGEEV

Sigma 1 = Sigma 1 (Homo sapiens, UniProt Q99720); assay: Equilibrium binding (Table 69)
histamine H1 receptor = biological target: T10, histamine H1 receptor (Homo sapiens, UniProt P35367); assay: G-protein-independent signal transduction, β-arrestin signaling; assay type: cell-based; details: for IC50: H1, β-arrestin signaling, read-out: IC50, functional antagonist
T10 construct: expressed in transfected cells

5-HT6 [7] = biological target: T5, 5-HT6; assay: Equilibrium receptor binding, recombinant human receptor; set-up: expressed in transfected cells
D2S = biological target: T11, D2S (Homo sapiens, UniProt P14416); assay: as above
T11 construct: expressed in transfected cells

[8] = 5-HT2c, read-out: IC50, functional antagonist
[9] = read-out: IC50 (nM) (Antagonist)

T10 sequence (P35367 whole entry): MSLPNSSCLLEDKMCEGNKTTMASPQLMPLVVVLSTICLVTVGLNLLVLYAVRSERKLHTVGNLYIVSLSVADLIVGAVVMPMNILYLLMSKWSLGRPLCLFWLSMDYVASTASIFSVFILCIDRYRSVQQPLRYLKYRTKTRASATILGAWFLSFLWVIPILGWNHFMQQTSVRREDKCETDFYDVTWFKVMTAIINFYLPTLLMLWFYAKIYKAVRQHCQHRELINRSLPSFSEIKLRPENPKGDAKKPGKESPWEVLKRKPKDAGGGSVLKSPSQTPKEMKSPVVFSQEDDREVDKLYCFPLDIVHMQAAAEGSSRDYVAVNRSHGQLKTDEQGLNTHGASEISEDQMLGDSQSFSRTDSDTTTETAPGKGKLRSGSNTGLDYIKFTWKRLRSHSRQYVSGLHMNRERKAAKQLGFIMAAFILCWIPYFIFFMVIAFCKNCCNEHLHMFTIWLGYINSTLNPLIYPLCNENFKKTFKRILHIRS
T2 sequence (P28223 whole entry): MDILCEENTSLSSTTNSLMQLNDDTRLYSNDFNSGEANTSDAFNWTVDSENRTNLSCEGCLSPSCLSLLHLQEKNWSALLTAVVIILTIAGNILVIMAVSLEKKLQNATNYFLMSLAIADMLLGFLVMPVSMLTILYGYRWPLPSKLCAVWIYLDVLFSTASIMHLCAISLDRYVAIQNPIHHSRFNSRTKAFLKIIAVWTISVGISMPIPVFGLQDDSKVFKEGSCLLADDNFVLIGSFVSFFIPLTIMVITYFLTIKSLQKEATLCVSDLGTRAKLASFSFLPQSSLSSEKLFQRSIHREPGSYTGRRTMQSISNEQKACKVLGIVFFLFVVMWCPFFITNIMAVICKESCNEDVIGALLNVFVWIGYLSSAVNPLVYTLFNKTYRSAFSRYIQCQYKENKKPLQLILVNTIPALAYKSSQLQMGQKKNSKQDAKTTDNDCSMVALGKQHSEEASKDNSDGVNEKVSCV
T5 sequence (P50406 whole entry): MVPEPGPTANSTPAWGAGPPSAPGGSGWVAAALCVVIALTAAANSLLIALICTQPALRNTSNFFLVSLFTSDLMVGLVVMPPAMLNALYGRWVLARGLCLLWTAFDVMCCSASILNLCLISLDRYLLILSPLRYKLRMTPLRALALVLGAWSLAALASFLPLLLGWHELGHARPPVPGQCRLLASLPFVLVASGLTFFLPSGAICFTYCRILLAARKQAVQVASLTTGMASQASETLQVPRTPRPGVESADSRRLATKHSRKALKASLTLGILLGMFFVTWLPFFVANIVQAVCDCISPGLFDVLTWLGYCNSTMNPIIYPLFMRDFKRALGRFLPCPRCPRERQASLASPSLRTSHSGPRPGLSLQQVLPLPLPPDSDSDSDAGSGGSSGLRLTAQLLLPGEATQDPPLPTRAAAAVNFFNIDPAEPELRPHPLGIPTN
T3 sequence (P41595 whole entry): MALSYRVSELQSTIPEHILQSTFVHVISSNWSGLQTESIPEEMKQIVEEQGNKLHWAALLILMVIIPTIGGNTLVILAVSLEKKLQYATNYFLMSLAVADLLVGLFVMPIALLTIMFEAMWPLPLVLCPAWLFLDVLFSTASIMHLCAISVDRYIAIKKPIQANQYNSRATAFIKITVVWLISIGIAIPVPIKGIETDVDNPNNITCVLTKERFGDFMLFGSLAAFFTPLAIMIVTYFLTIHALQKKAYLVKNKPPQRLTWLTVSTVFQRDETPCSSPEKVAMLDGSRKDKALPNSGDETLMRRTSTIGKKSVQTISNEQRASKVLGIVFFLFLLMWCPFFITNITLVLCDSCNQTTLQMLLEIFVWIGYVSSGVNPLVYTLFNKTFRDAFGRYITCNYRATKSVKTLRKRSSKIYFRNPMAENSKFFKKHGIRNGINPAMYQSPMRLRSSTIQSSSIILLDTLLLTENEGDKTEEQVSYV
T11 sequence (P14416 1-414 isoform P14416-2): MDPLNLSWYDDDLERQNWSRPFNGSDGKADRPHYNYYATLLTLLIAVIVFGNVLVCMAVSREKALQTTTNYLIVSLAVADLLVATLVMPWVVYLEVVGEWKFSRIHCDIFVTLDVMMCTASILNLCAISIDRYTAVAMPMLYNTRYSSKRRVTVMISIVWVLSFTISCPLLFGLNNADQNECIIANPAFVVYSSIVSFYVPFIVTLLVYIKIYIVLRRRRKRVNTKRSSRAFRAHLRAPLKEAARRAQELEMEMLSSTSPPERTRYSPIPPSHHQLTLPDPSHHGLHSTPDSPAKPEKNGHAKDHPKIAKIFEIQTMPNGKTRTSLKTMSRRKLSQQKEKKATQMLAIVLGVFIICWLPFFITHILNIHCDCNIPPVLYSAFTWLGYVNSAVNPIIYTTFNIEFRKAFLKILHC
Sigma 1, sequence (Q99720 whole entry): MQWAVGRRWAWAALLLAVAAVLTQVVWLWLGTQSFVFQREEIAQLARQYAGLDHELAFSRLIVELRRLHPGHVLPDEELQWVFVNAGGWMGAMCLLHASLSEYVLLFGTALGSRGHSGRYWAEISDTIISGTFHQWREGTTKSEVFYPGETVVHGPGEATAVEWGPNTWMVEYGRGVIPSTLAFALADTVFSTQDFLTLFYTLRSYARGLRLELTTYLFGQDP
5-HT transporter, sequence (P31645 whole entry): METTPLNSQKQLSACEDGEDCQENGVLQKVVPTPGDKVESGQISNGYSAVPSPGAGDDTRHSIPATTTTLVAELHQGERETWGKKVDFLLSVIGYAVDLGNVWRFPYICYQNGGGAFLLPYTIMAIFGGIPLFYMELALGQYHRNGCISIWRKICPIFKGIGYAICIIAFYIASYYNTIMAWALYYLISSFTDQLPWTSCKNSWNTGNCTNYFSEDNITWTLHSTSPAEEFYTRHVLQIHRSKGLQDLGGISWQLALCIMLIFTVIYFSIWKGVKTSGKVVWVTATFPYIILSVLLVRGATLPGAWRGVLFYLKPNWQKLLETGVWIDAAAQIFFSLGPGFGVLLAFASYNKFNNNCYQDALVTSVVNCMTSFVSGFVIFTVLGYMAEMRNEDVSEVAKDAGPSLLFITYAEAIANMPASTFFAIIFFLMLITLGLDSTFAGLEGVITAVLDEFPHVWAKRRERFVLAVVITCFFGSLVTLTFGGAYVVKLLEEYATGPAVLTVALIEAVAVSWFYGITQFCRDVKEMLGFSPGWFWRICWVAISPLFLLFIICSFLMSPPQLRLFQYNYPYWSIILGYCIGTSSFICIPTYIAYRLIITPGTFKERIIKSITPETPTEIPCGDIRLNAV
T7 sequence (P47898 whole entry): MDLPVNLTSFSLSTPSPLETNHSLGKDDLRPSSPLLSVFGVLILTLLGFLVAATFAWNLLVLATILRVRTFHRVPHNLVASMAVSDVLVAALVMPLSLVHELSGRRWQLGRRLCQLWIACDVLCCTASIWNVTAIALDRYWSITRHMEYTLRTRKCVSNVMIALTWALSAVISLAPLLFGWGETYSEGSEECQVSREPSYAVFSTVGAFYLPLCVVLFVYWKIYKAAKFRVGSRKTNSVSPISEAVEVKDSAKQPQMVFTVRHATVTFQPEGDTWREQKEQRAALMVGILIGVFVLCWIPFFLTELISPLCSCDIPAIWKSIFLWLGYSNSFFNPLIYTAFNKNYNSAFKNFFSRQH
T8 sequence (P35368 whole entry): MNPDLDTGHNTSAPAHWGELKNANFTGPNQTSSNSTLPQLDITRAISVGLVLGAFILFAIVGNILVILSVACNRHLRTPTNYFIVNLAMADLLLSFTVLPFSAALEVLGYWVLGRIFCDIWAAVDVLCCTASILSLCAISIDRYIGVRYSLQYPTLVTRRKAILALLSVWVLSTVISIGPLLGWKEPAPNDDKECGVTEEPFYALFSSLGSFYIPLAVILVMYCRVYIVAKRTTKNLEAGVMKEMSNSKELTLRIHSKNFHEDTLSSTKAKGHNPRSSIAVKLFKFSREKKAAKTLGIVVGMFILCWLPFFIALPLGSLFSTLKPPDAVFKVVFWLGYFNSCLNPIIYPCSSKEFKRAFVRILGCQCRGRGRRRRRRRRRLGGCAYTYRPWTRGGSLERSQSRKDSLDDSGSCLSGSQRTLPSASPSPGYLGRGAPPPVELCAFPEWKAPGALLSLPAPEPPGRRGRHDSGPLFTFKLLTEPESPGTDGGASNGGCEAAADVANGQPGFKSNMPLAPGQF
α2B, sequence (P18089 whole entry): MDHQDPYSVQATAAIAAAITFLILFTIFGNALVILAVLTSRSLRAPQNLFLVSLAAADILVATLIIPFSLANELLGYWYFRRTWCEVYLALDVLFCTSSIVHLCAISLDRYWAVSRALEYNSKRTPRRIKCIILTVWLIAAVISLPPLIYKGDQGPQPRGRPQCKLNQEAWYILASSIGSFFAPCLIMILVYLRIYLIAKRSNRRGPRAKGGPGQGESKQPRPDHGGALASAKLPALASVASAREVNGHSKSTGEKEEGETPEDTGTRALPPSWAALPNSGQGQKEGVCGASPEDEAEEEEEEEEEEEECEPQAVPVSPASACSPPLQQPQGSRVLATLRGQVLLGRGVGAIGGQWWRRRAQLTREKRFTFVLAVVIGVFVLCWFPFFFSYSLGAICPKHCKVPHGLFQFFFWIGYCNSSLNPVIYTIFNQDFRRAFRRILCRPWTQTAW

Row | Compound | IC50 (5-HT2C) [nM] | IC50 (5-HT2A [1]) [nM] | IC50 (5-HT2A [2]) [nM] | IC50 (5-HT2B) [nM] | IC50 (5-HT2A [3]) | IC50 (5-HT2C receptor; [8]) [nM] | IC50 (5-HT6 [4]) [nM] | IC50 (α2B) [µM] | IC50 (muscarinic M1 receptor) [nM] | Ki (5-HT5A receptor) [nM] | Ki [5] [nM] | Ki [6] [nM] | IC50 (histamine H1 receptor) [nM] | Ki (5-HT6 [7]) [nM] | Ki (D2S) [nM] | also measured
1 | CNCCC=C1c2ccccc2C=Cc2ccccc21 [norcyclobenzaprine, 3-(5H-dibenzo[a,d]cyclohepten-5-ylidene)-N-methyl-1-propanamine] | 2000 | 450 | 181 | 580 | 92 nM and 140 nM | 1220 | 2800 | 41 | 8.7 | 1600 | 11 | 34 | 6.1 | 1400 | 410 | Four parameter Hill slope (or fit slope) ratio; β-arrestin signaling (5-HT2A [2]): 1.11; Four parameter Hill slope (or fit slope) ratio; Ca2+ signaling (5-HT2B): 1.54; Four parameter Hill slope (or fit slope) ratio; Ca2+ signaling (5-HT2A [3]): 1.27; Four parameter Hill slope (or fit slope) ratio; Ca2+ signaling (5-HT2C receptor; 5-HT2C): 0.94; Four parameter Hill slope (or fit slope) ratio; Ca2+ signaling (muscarinic M1 receptor; M1): 0.62; Ki (5-HT transporter): 29 nM; Hill plot ratio (Hill slope) ([6]; equilibrium binding, α-1A): 1.16; Ki (Sigma 1): 120 nM; Four parameter Hill slope (or fit slope) ratio; β-arrestin signaling (histamine H1 receptor; H1): 1.09
2 | CN(C)CCC=C1c2ccccc2C=Cc2ccccc21 [cyclobenzaprine, 3-(5H-dibenzo[a,d]cyclohepten-5-ylidene)-N,N-dimethyl-1-propanamine] | 770 | 210 | 99 | 100 | 230 nM | 440 | 2000 | 9.8 | 0.71 | 730 | 9.1 | 5.6 | 2.7 | 480 | 120 | IC50 (5-HT2C receptor; 5-HT2C, read-out: IC50 (nM) (Antagonist)): 444 nM; IC50 (5-HT transporter; [9]): 91 nM; IC50 (Sigma 1; [9]): 790 nM
